Reference: paper PMC11249626, “Fluorophore-Labeled Pyrrolones Targeting the Intracellular Allosteric Binding Site of the Chemokine Receptor CCR1” (ACS Pharmacology & Translational Science, 2024)
Like-named read-outs stand apart in the source and are kept apart here.

Assays:
CCR1 [1] = target: T1, CCR1 (Homo sapiens, UniProt P32246); assay: Membrane-based NanoBRET competition assay with 12 (2000 nM) and CCR1_Nluc membranes; assay type: binding; parameters: Promega pNLF1-C (Nluc) #CCR010TN00; host or cells: HEK293T, transient (PEI); details: 12 (2000 nM); for CCR1 inhibition class (n.i.) / % inh. of tracer binding, CCR1: compound at 20 μM
T1 sequence (P32246 1-355): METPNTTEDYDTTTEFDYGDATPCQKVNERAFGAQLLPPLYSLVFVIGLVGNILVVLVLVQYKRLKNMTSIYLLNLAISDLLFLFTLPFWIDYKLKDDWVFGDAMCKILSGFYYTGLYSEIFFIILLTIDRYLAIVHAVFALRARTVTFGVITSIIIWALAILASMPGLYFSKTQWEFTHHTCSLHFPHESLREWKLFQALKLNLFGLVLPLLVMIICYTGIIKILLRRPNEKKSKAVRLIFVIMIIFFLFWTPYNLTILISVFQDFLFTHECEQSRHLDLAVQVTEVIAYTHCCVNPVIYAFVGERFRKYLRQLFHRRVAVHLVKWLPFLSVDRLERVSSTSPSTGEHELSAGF

CCR2 = target: T2, CCR2 (Homo sapiens, UniProt P41597); assay: NanoBRET competition binding assay for CCR2 based on 7, as previously reported; details: for inhibition at 20 µM: compound at 20 μM
T2 construct: host or cells: HEK293T, transient
T2 sequence (P41597 1-360 isoform P41597-2): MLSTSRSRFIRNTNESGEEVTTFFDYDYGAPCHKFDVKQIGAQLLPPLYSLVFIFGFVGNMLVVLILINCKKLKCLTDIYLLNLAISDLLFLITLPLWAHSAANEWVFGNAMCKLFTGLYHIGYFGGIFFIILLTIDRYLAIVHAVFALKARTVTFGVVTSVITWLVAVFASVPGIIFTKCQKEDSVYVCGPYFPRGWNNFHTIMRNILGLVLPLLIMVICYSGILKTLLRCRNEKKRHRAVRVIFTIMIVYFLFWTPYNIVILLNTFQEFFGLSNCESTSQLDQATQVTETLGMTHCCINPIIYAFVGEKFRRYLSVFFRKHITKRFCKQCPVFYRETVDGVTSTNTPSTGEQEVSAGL
From the text: With 6 (Figure 1), a first lead structure for intracellular CCR1 inhibition that features an approximately 20-fold CCR1 over CCR2 selectivity was previously discovered by Ortiz Zacarías et al.([33]) In order to discover new chemotypes for selective CCR1 over CCR2 inhibition, we aimed to apply our novel NanoBRET competition binding assay for CCR1 in combination with our recently published CCR2 competition binding assay based on 7.[47] In our first attempt, we screened a small in-house library enriched with intracellular GPCR ligands and structural analogues thereof. […] Additionally, we tested 23 for binding to the IABS of CCR9 and CXCR2 using our recently reported NanoBRET-based assay platform (Figure 6C).[44],[45] In the course of these studies, we detected no binding of 23 to CCR9 and CXCR2 up to a concentration of 20 μM. Since cell lineage-dependent effects have been observed for CCR1 antagonists,[59] we studied the CCR1 over CCR2 selectivity of 23 by using a previously reported radioligand binding assay with membrane preparations from osteosarcoma (U2OS) cells stably expressing human CCR1 or CCR2.[33] […] In agreement with these previous reports,[33] we observed a reduction in CCR1 over CCR2 selectivity when moving from membrane-based binding assays to cell-based functional assays. […] To investigate a potential signaling bias of 23, we tested the compound by means of a NanoBiT miniGi recruitment assay.[60] […] Thus, this indicated no strong signaling bias of 23 (Figures S9E and S10C). To elucidate the SAR of this new scaffold for selective CCR1 over CCR2 inhibition, we synthesized several analogues of 23 (24–40) and tested them by means of our NanoBRET competition binding assays (Schemes S2 and S3, Table 1, Figures 6F and S11). First, we aimed to examine the impact of the stereochemistry of 23 on CCR1 affinity. As for the structurally related pyrrolone 4, large differences in CCR2 affinity between the eutomer 4-[R] and the distomer 4-[S] were described.[61] […] Furthermore, we identified the 4-hydroxyphenethyl group at position 1 of the pyrrolone scaffold as highly important for CCR1 affinity and selectivity. Its presence seems to block CCR2 binding, also when combined with the structural features of the high-affinity CCR2 ligand 5, as exemplified by 24. Especially the 4-hydroxy group at this moiety is essential for CCR1 binding (see 25 and 26). […] In position 5 of the pyrrolone, several aromatic and aliphatic substituents were tolerated (see 31–35).

CCR1 [2] = target: T1, CCR1; assay: Live cell NanoBRET binding assay, HEK293T cells expressing CCR1_Nluc; parameters: Promega pNLF1-C (Nluc) #CCR010TN00; host or cells: HEK293T, transient (PEI); details: 12 (1000 nM), live HEK293T cells
[3] = CCR1_Nluc membranes, read-out: Ki, CCR1 (converted)
[4] = read-out: CCR2 inhibition class (n.i.)
[5] = CCR1_Nluc membranes, read-out: pKi ± SEM, CCR1 (converted)
[6] = read-out: % inh. of tracer binding, CCR2
[7] = CCR1_Nluc membranes, read-out: Ki, CCR1 (Figure 5B)

| Compound | Ki (CCR1 [1]; [3]) | inhibition at 20 µM (CCR2; [4]) | Ki (CCR1 [1]; [5]) | also measured |
| --- | --- | --- | --- | --- |
| O=C(C1=C(O)C(=O)N(CCc2ccc(O)cc2)C1c1ccc(F)cc1)c1ccccc1 (single isomer, unassigned; (-)) [(-)-23] | 0.216 µM | – | 0.209 µM | inhibition at 20 µM (CCR2; [6]): 27% |
| CS(=O)(=O)c1cc(C2(NC(=O)c3cncc4c3cnn4-c3ccc(F)cc3)CC2)ccn1 [compound 3, reference compound] | – | – | – | Enhancement of CCR1 binding of 12 (CCR1 [1]; CCR1_Nluc membranes): ~150% |
| COCc1cn(CCCC(=O)C2=C(O)C(=O)N(c3ccc(Br)cc3F)C2C2CCCCC2)nn1 (centres unmarked) [compound 10] | 0.0976 µM | – | – | – |
| O=C(O)c1ccc(Oc2ncc(Cl)cc2NS(=O)(=O)c2ccc(Cl)c(C(F)(F)F)c2)cc1 [compound 19, reference compound] | 0.354 µM | – | – | Ki (CCR1 [1]; [7]): 0.35 µM |
| CC[C@@H](Nc1c(Nc2cccc(C(=O)N(C)C)c2O)c(=O)c1=O)c1ccc(C)o1 [compound 20, reference compound] | – | – | 2.24 µM | Ki (CCR1 [1]; [7]): 2.34 µM |
| CC(C)(C)c1ccc(S(=O)(=O)Nc2ccc(Cl)cc2C(=O)c2cc[n+]([O-])cc2)cc1 [compound 21, reference compound] | – | – | 2.95 µM | Ki (CCR1 [1]; [7]): 3.13 µM |
| CC(C)(C)c1ccc(S(=O)(=O)Nc2ccc(Cl)cc2-c2cncnc2N)cc1 [compound 22, reference compound] | – | – | 2.63 µM | Ki (CCR1 [1]; [7]): 2.95 µM |
| CC(=O)C1=C(O)C(=O)N(CCc2ccc(O)cc2)C1C1CCCCC1 (centres unmarked) [compound 24] | – | – | – | CCR1 inhibition class (n.i.) (CCR1 [1]): n.i. (no inhibition (percentual inhibition at 20 μM < 10%)); inhibition at 20 µM (CCR2; [6]): 10% |
| O=C(C1=C(O)C(=O)N(CCc2ccccc2)C1c1ccc(F)cc1)c1ccccc1 (centres unmarked) [compound 25] | 0.997 µM | < 10% | 0.955 µM | – |
| O=C(C1=C(O)C(=O)N(CCc2cccc(O)c2)C1c1ccc(F)cc1)c1ccccc1 (centres unmarked) [compound 27] | 0.184 µM | < 10% | 0.178 µM | – |
| O=C(C1=C(O)C(=O)N(Cc2ccc(O)cc2)C1c1ccc(F)cc1)c1ccccc1 (centres unmarked) [compound 29] | 0.13 µM | – | 0.12 µM | inhibition at 20 µM (CCR2; [6]): 42% |
| O=C(C1=C(O)C(=O)N(c2ccc(O)cc2)C1c1ccc(F)cc1)c1ccccc1 (centres unmarked) [compound 30] | – | < 10% | – | % inh. of tracer binding, CCR1 (CCR1 [1]): 32% @ 20 μM |
| O=C(C1=C(O)C(=O)N(CCc2ccc(O)cc2)C1c1ccc(Br)cc1)c1ccccc1 (centres unmarked) [compound 31] | 0.189 µM | – | 0.182 µM | inhibition at 20 µM (CCR2; [6]): 19% |
| O=C(C1=C(O)C(=O)N(CCc2ccc(O)cc2)C1c1cccc(Br)c1)c1ccccc1 (centres unmarked) [compound 32] | 0.195 µM | < 10% | 0.178 µM | – |
| O=C(C1=C(O)C(=O)N(CCc2ccc(O)cc2)C1c1ccc(Cl)cc1)c1ccccc1 (centres unmarked) [compound 33] | 0.2 µM | – | 0.191 µM | inhibition at 20 µM (CCR2; [6]): 18% |
| O=C(C1=C(O)C(=O)N(CCc2ccc(O)cc2)C1C1CCCCC1)c1ccccc1 (centres unmarked) [compound 34] | 0.231 µM | – | 0.219 µM | inhibition at 20 µM (CCR2; [6]): 37% |
| O=C(C1=C(O)C(=O)N(CCc2ccc(O)cc2)C1c1ccc(F)cc1)C1CC1 (centres unmarked) [compound 36] | – | < 10% | – | % inh. of tracer binding, CCR1 (CCR1 [1]): 25% @ 20 μM |
| O=C(C1=C(O)C(=O)N(CCc2ccc(O)cc2)C1c1cccc(Br)c1)C1CC1 (centres unmarked) [compound 37] | – | < 10% | – | CCR1 inhibition class (n.i.) (CCR1 [1]): n.i. (no inhibition (percentual inhibition at 20 μM < 10%)) |
| O=C(C1=C(O)C(=O)N(CCc2ccc(O)cc2)C1c1ccc(F)cc1)c1ccc(O)cc1 (centres unmarked) [compound 38] | – | – | – | % inh. of tracer binding, CCR1 (CCR1 [1]): 42% @ 20 μM; inhibition at 20 µM (CCR2; [6]): 19% |
| O=C(C1=C(O)C(=O)N(c2ccc(Br)cc2F)C1c1ccc(F)cc1)c1ccccc1 (centres unmarked) [compound 40] | 0.224 µM | – | – | Ki (CCR2; NanoBRET competition, tracer 7): 7.83 µM |
| CC(=O)C1=C(O)C(=O)N(c2ccc(Br)cc2)C1c1ccccc1[N+](=O)[O-] (centres unmarked) [compound 41] | – | – | – | % inh. of tracer binding, CCR1 (CCR1 [1]): ≥ 50% |
| Cc1ccc(S(=O)(=O)Nc2ccc(Cl)cc2C(=O)c2ccccc2)cc1 [compound 42] | – | – | – | % inh. of tracer binding, CCR1 (CCR1 [1]): ≥ 50% |
| CCL7: orthosteric CCR1 agonist chemokine, also referred to as MCP-3 | – | – | – | Competition with 12 at CCR1 (CCR1 [1]; CCR1_Nluc membranes): no competition |

Now from value to compound, other results behind:

| Ki (CCR1 [1]; [3]) | inhibition at 20 µM (CCR2; [4]) | Ki (CCR1 [1]; [5]) | Compound | also measured |
| --- | --- | --- | --- | --- |
| 0.0657 µM | < 10% | – | O=C(C1=C(O)C(=O)N(CCc2ccc(O)cc2)C1c1ccc(F)cc1)c1ccccc1 (single isomer, unassigned; (+)) [(+)-23] | – |
| 0.0756 µM | – | 0.0724 µM | CC(C)C[C@H](CO)Nc1nc(S[C@@H](C)c2ccccc2)nc2nc(N)sc12 [compound 18, reference compound] | Ki (CCR1 [2]; read-out: Ki, live cells): 0.0983 µM; Ki (CCR1 [2]; read-out: pKi ± SEM, live cells (converted)): 0.0933 µM |
| 0.952 µM | < 10% | 0.871 µM | O=C(C1=C(O)C(=O)N(CCc2ccc(F)cc2)C1c1ccc(F)cc1)c1ccccc1 (centres unmarked) [compound 26] | – |
| 0.291 µM | – | – | O=C(C1=C(O)C(=O)N(CCc2ccccc2O)C1c1ccc(F)cc1)c1ccccc1 (centres unmarked) [compound 28] | inhibition at 20 µM (CCR2; [6]): 49% |
| 0.279 µM | < 10% | 0.257 µM | O=C(C1=C(O)C(=O)N(CCc2ccc(O)cc2)C1c1ccccc1)c1ccccc1 (centres unmarked) [compound 35] | – |
| – | < 10% | – | O=C(C1=C(O)C(=O)N(CCc2ccc(O)cc2)C1c1ccc(F)cc1)c1cccc(O)c1 (centres unmarked) [compound 39] | % inh. of tracer binding, CCR1 (CCR1 [1]): 38% @ 20 μM |
